What follows are molecules tested against T1, NS3 protease domain complexed to a modified form of the NS4A peptide (Pep4AK) (Hepatitis C virus genotype 1b, UniProt P26663) (assay: HCV NS3 protease domain/NS4A cofactor peptide assay (Assay B)). Conditions: Table 1; NS3 protease domain/Pep4AK, 4AB peptide substrate; read-out: Assay B.
T1 construct: NS3 protease domain (residues 1027–1206 of the HCV polyprotein)
T1 sequence (P26663 1027-1206, other chains not shown): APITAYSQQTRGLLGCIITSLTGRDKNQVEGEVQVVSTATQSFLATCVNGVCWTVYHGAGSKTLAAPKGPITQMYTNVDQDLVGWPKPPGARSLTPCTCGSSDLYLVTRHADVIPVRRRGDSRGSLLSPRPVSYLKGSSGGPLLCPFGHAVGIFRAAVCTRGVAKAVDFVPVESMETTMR
Type: biochemical
CC(C)COC(=O)NC(CCC(=O)O)C(=O)NC(CC(C)C)C(=O)NC(CS)C(=O)NCCc1cccs1 (centres unmarked) [Compound 191] was tested, and the IC50 was < 100 µM. CC(C)COC(=O)NC(CCC(=O)O)C(=O)NC(CC(C)C)C(=O)NC(CS)C(=O)NCCc1ccc2ccccc2c1 (centres unmarked) [Compound 192] was tested, and the IC50 was < 100 µM. With CC(C)COC(=O)NC(CCC(=O)O)C(=O)NC(CC(C)C)C(=O)NC(CS)C(=O)NCCc1cccnc1 (centres unmarked) [Compound 193] the IC50 was < 100 µM.

Same assay, conditions: Table 2; NS3 protease domain/Pep4AK; read-out: Assay B
For CC(C)C[C@H](NC(=O)[C@H](CCC(=O)O)NC(=O)c1ccco1)C(=O)N[C@@H](CS)C(=O)NCCc1ccccc1Cl [Compound 201], the IC50 was < 100 µM. For COc1ccc(CCNC(=O)[C@H](CS)NC(=O)[C@H](CC(C)C)NC(=O)[C@H](CCC(=O)O)NC(=O)c2ccccc2)cc1 [Compound 202], the IC50 was < 100 µM. With CC(C)C[C@H](NC(=O)[C@H](CCC(=O)O)NC(=O)c1ccc2c(c1)OCO2)C(=O)N[C@@H](CS)C(=O)NCCc1ccccc1Cl [Compound 203] the IC50 was < 100 µM. For COc1ccc(CCNC(=O)[C@H](CS)NC(=O)[C@H](CC(C)C)NC(=O)[C@H](CCC(=O)O)NC(=O)c2ccc3c(c2)OCO3)cc1 [Compound 204], the IC50 was < 100 µM. COc1ccc(C(=O)N[C@@H](CCC(=O)O)C(=O)N[C@@H](CC(C)C)C(=O)N[C@@H](CS)C(=O)NCCc2ccccc2Cl)cc1OC [Compound 205] was tested, and the IC50 was < 100 µM. For CC(C)C[C@H](NC(=O)[C@H](CCC(=O)O)NC(=O)c1cccc(Br)c1)C(=O)N[C@@H](CS)C(=O)NCCc1ccccc1Cl [Compound 206], the IC50 was < 100 µM. With COc1ccc(CCNC(=O)[C@H](CS)NC(=O)[C@H](CC(C)C)NC(=O)[C@H](CCC(=O)O)NC(=O)c2ccc(C#N)cc2)cc1 [Compound 207] the IC50 was < 100 µM. In the case of CC(C)C[C@H](NC(=O)[C@H](CCC(=O)O)NC(=O)c1cc(O)ccc1N)C(=O)N[C@@H](CS)C(=O)NCCc1ccccc1Cl [Compound 208], the IC50 is reported as < 100 µM. In the case of CC(C)C[C@H](NC(=O)[C@H](CCC(=O)O)NC(=O)c1ccncc1N)C(=O)N[C@@H](CS)C(=O)NCCc1ccccc1Cl [Compound 209], the IC50 is reported as < 100 µM. Cc1nn(Cc2cccc(C(=O)N[C@@H](CCC(=O)O)C(=O)N[C@@H](CC(C)C)C(=O)N[C@@H](CS)C(=O)NCCc3ccccc3Cl)c2)c(C)c1Br [Compound 210] was tested, and the IC50 was < 100 µM. In the case of CC(C)C[C@H](NC(=O)[C@H](CCC(=O)O)NC(=O)c1ccccc1-c1ccccc1C(=O)O)C(=O)N[C@@H](CS)C(=O)NCCc1ccccc1Cl [Compound 211], the IC50 is reported as < 100 µM. CC(C)C[C@H](NC(=O)[C@H](CCC(=O)O)NC(=O)c1cc2ccccc2s1)C(=O)N[C@@H](CS)C(=O)NCCc1ccccc1Cl [Compound 212] was tested, and the IC50 was < 100 µM. For COc1ccc(CCNC(=O)[C@H](CS)NC(=O)[C@H](CC(C)C)NC(=O)[C@H](CCC(=O)O)NC(=O)c2cc3ccccc3s2)cc1 [Compound 213], the IC50 was < 100 µM. With COc1ccc(CCNC(=O)[C@H](CS)NC(=O)[C@H](CC(C)C)NC(=O)[C@H](CCC(=O)O)NC(=O)c2ccco2)cc1 [Compound 214] the IC50 was < 100 µM. In the case of CC(C)C[C@H](NC(=O)[C@H](CCC(=O)O)NC(=O)Cc1ccccc1)C(=O)N[C@@H](CS)C(=O)NCCc1ccccc1Cl [Compound 215], the IC50 is reported as < 100 µM. For COc1ccc(CCNC(=O)[C@H](CS)NC(=O)[C@H](CC(C)C)NC(=O)[C@H](CCC(=O)O)NC(=O)Cc2ccccc2)cc1 [Compound 216], the IC50 was < 100 µM. In the case of CC(C)C[C@H](NC(=O)[C@H](CCC(=O)O)NC(=O)CCc1ccccc1)C(=O)N[C@@H](CS)C(=O)NCCc1ccc(Cl)cc1Cl [Compound 217], the IC50 is reported as < 100 µM. For CC(C)C[C@H](NC(=O)[C@H](CCC(=O)O)NC(=O)/C=C/c1ccc([N+](=O)[O-])cc1)C(=O)N[C@@H](CS)C(=O)NCCc1ccccc1Cl [Compound 218], the IC50 was < 100 µM. CC(C)C[C@H](NC(=O)[C@H](CCC(=O)O)NC(=O)C1C[C@H]1c1ccccc1)C(=O)N[C@@H](CS)C(=O)NCCc1ccccc1Cl (some centres unmarked) [Compound 219] was tested, and the IC50 was < 100 µM. COc1ccc(CCNC(=O)[C@H](CS)NC(=O)[C@H](CC(C)C)NC(=O)[C@H](CCC(=O)O)NC(=O)C2C[C@H]2c2ccccc2)cc1 (some centres unmarked) [Compound 220] was tested, and the IC50 was < 100 µM.

— patent US7119073B2, “Peptides and their use as inhibitors of hepatitis C virus ns3 protease” (Istituto Di Ricerche Di Biologia Molecolare P. Angeletti SpA, priority 2001, dated 2006)
